Measured values: patent publication US20060205682A1, “Antibiotic and combinations of antibiotic and symptomatic relief agent formulations” (priority 2005, published 2006)
Values after ≈ are worked out from the molar mass of the structure shown.

Assay: physchem
Settings: pH 8, aqueous buffer, thermodynamic from solid
Procedure: A 5 ml aliquot of 5% potassium phosphate buffer is added to 500 mg of gamma-cyclodextrin and sonicated until a clear solution is formed. […] The process is repeated with two additional amounts of gamma-cyclodextrin. Known aliquots of each solution are placed in a 2 cm cell and analyzed using a UV-Vis Spectrophotomer between the wavelengths 200-400 nm.

COc1cc(Cc2cnc(N)nc2N)cc(OC)c1OC [trimethoprim]
solubility thermodynamic at 30 min: 350 µg/mL (≈ 1210 µM)
